Measurements taken from PMC6057745, “The dual role of chloride in synaptic vesicle glutamate transport” (eLife, 2018).

Assays:
VGLUT1 [1] = target: T1, VGLUT1 (Rattus norvegicus, UniProt Q62634); assay: whole endosome patch clamp, block of Cl- and glutamate currents; format: biochemical
T1 construct: gene Slc17a7; full-length rat VGLUT1 fused to EGFP (pEGFP-N1); co-expressed with Rab5 Q79L-mCherry in HEK293T; whole endosome recording of isolated enlarged endosomes
T1 sequence (Q62634 1-560): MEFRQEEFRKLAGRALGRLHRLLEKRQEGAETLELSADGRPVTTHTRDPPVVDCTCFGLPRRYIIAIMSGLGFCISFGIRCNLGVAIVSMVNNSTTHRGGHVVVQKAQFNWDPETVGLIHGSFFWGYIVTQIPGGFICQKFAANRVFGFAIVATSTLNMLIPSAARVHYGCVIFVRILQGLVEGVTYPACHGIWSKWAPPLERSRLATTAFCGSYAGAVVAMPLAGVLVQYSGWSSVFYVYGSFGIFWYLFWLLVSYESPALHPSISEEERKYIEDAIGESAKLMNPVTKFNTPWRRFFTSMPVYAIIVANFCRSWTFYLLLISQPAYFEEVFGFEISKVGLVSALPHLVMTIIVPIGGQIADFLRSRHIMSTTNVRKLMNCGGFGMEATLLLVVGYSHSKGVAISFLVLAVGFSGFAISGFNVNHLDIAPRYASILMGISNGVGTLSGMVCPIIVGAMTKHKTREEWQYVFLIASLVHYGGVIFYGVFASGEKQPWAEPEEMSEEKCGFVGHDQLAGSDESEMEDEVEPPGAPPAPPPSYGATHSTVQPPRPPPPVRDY

VGLUT1 [2] = target: T1, VGLUT1; assay: whole endosome patch clamp, outward glutamate currents; format: biochemical
Method: whole endosome patch clamp, outward glutamate currents on VGLUT1 | glutamate currents saturate with EC50376 µM

For `Cc1cc(-c2ccc(/N=N/c3ccc4c(S(=O)(=O)O)cc(S(=O)(=O)O)c(N)c4c3O)c(C)c2)ccc1/N=N/c1ccc2c(S(=O)(=O)O)cc(S(=O)(=O)O)c(N)c2c1O` [Evans Blue], the IC50 (VGLUT1 [1]) was ~0.2 µM.

In the case of `N[C@@H](CCC(=O)O)C(=O)O` [glutamate], the EC50 (VGLUT1 [2]) is reported as 376 µM.
